From US7153863B2, “Therapeutic compounds based on pyrazolopyridline derivatives” (SmithKline Beecham Corporation, priority 2002, dated 2006)

System: HSV-1
Test: HSV-1 infection of Vero 76 cells, HSV DNA hybridization capture assay
Format: cell-based, herpes simplex virus 1
Settings: Human alphaherpesvirus 1; HSV-1 (MOI=0.001) in Vero 76 cells, 40–48 hours at 37° C., viral DNA by hybridization/chemiluminescence
Description: Vero 76 cells were maintained in MEM with Earle's salts, L-glutamine, 8% FBS (Hyclone, A-1111-L) and 100 units/mL Penicillin-100 μg/mL Streptomycin. For assay conditions, FBS was reduced to 2%. Cells are seeded into 96-well tissue culture plates at a density of 5×10^4 cells/well after being incubated for 45 min at 37° C. in the presence of HSV-1 or HSV-2 (MOI=0.001). Test compounds are added to the wells and the plates are incubated at 37° C. for 40–48 hours. Cell lysates are prepared as follows: media was removed and replaced with 150 μL/well 0.2 N NaOH with 1% Igepal CA 630 or NP-40. Plates were incubated up to 14 days at room temperature in a humidified chamber to prevent evaporation.
For the detection probe, a gel-purified, digoxigenin-labeled, […] PCR fragment of the HSV UL-15 sequence was utilized. PCR conditions included 0.5 μM primers, 180 μM dTP, 20 μM dUTP-digoxigenin (Boehringer Mannheim 1558706), 200 μM each of dATP, dCTP, and dGTP, 1×PCR Buffer II (Perkin Elmer), 2.5 mM MgCl2, 0.025 units/μL of AmpliTaq Gold polymerase (Perkin Elmer), and 5 ng of gel-purified HSV DNA per 100 μL Extension conditions were 10 min at 95° C., followed by 30 cycles of 95° C. for 1 min, 55° C. for 30 sec, and 72° C. for 2 min. The amplification was completed with a 10-min incubation at 72° C. Primers were selected to amplify a 728 bp probe spanning a section of the HSV1 UL15 open reading frame (nucleotides 249–977). Single-stranded transcripts were purified with Promega M13 Wizard kits. The final product was mixed 1:1 with a mixture of 6 M GuSCN, 100 mM EDTA and 200 μg/mL herring sperm DNA and stored at 4° C.
The capture DNA plasmid (HSV UL13 region in pUC) was linearized by cutting with Xba I, denatured for 15 min at 95° C. and diluted immediately into Reacti-Bind DNA Coating Solution (Pierce, 17250, diluted 1:1 with TE buffer, pH 8) at 1 ng/μL 75 μL/well were added to Corning (#3922 or 9690) white 96-well plates and incubated at room temperature for at least 4 hrs before washing twice with 300 μL/well 0.2×SSC/0.05% Tween-20 (SSC/T buffer). The plates were then incubated overnight at room temperature with 150 μL/well 0.2 N NaOH, 1% IGEPAL and 10 μg/mL herring sperm DNA.
Twenty-seven (27) μL of cell lysate was combined with 45 μL of hybridization solution (final concentration: 3M GuSCN, 50 mM EDTA, 100 μg/ml salmon sperm DNA, 5× Denhardt's solution, 0.25×APE, and 5 ng of the digoxigenin-labeled detection probe). APE is 1.5 M NH4-acetate, 0.15 M ammonium phosphate monobasic, and 5 mM EDTA adjusted to pH 6.0. Mineral oil (50 μL) was added to prevent evaporation. The hybridization plates were incubated at 95° C. for 10 minutes to denature the DNA, then incubated at 42° C. overnight. The wells were washed 6× with 300 μL/well SSC/T buffer then incubated with 75 μL/well anti-digoxigenin-HRP-conjugated antibody (Boehringer Mannheim 1207733, 1:5000 in TE) for 30 min at room temperature. The wells were washed 6× with 300 μL/well with PBS/0.05% Tween-20 before 75 μL/well SuperSignal LBA substrate (Pierce) was added. The plates were incubated at room temperature for 30 minutes and chemiluminescence was measured in a Wallac Victor reader.
The following results were obtained for HSV-1.

IC50: 4.7 µM
Structure (SMILES): COCCNc1cccc2c(-c3ccnc(NC4CCCC4)n3)c(COCCOC)nn12 [Example 30, 3-[2-(Cyclopentylamino)-4-pyrimidinyl]-2-[(2-methoxyethoxy)methyl]-N-(2-methoxyethyl)pyrazolo[1,5-a]pyridin-7-amine]
